Experimental data taken from ChEMBL document CHEMBL1201862, “PubChem BioAssay data set” (2004).
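Test compounds were applied to cells in 96-well plates for 48 hours at 5 doses. The concentration for 50% growth inhibition is given as GI50.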 Activity calls are given as the source filed them. Cut-off read from the data, not from the text of the source: active = GI50 up to about 1.1 µM and inactive = higher.

How the values were obtained:
Test in all cases: NCI anticancer screen, dose series, 48 h
PC-3 = test system: PC-3
SR = test system: SR
HOP-18 = test system: HOP-18
DMS-114 = test system: DMS-114
SNB-78 = test system: SNB-78
XF498 = test system: XF498
DMS-273 = test system: DMS-273
LXFL 529 = test system: LXFL 529
RXF 631 = test system: RXF 631

COC(=O)CCC(C)C1CCC2C3CCC4CC5CCC4(C)C3(O5)C(Br)C(Br)C12C (stereo not drawn)
GI50 (PC-3): > 100 µM (inactive) | GI50 (SR): > 100 µM (inactive)

O=c1cc(-c2cc(O)c(O)c(-c3c(O)cc4oc(-c5ccc(O)c(O)c5)cc(=O)c4c3O)c2)oc2cc(O)cc(O)c12
GI50 (PC-3): > 25 µM (inactive) | GI50 (SR): > 25 µM (inactive)

O=P1(c2ccccc2)Nc2ccccc2SSc2ccccc2N1
GI50 (HOP-18): 19.2 µM (inactive) | GI50 (DMS-114): 19.5 µM (inactive) | GI50 (SNB-78): 24.2 µM (inactive) | GI50 (XF498): 17.8 µM (inactive) | GI50 (DMS-273): 17.4 µM (inactive)

C1CC2=C(C1)[Se]C(=C1Sc3nsnc3S1)[Se]2
GI50 (PC-3): > 100 µM (inactive)

O=C(OCc1ccccc1)C(Cc1ccccc1)N(Cc1ccccc1)Cc1ccccc1 (stereo not drawn)
GI50 (LXFL 529): 21.9 µM (inactive) | GI50 (DMS-114): 7.5 µM (inactive) | GI50 (SR): 9.51 µM (inactive) | GI50 (SNB-78): > 100 µM (inactive) | GI50 (XF498): 21.8 µM (inactive) | GI50 (DMS-273): 44.6 µM (inactive)

CCOC(=O)Cn1c(=O)c2cc(C)cc3c(Cl)nc4c(OC)c(OC)cc1c4c32
GI50 (PC-3): > 100 µM (inactive) | GI50 (SR): 50 µM (inactive)

COc1ccc(OC)c(SC(CC(=O)c2ccccc2)c2ccccc2)c1 (stereo not drawn)
GI50 (PC-3): 14.8 µM (inactive) | GI50 (SR): 7.6 µM (inactive)

NNC(=O)CCc1ccc2ccc3ccccc3c2c1
GI50 (PC-3): 67.3 µM (inactive) | GI50 (SR): > 100 µM (inactive)

COC(=O)C1=C(C)N2CCOC2(C)C(C(=O)OC)C1c1ccc[nH]1 (stereo not drawn)
GI50 (LXFL 529): > 100 µM (inactive) | GI50 (DMS-114): > 100 µM (inactive) | GI50 (SR): > 100 µM (inactive)

CN1CCN(c2cc(-c3cc4ccccc4o3)oc(=O)c2C#N)CC1
GI50 (LXFL 529): 81.7 µM (inactive) | GI50 (DMS-114): 69.2 µM (inactive) | GI50 (SR): 36.8 µM (inactive) | GI50 (RXF 631): 41.4 µM (inactive) | GI50 (SNB-78): > 100 µM (inactive) | GI50 (XF498): > 100 µM (inactive) | GI50 (DMS-273): 57.9 µM (inactive)

COC(=O)[C@@H]1C=C[C@H](NC(C)=O)C1
GI50 (PC-3): > 100 µM (inactive) | GI50 (SR): > 100 µM (inactive)

Cc1cc(C)cc(Sc2c([N+](=O)[O-])ncn2C)c1
GI50 (LXFL 529): 7.83 µM (inactive) | GI50 (HOP-18): 1.28 µM (inactive) | GI50 (DMS-114): 12.2 µM (inactive) | GI50 (SR): 10.5 µM (inactive) | GI50 (RXF 631): 16 µM (inactive) | GI50 (SNB-78): 13.6 µM (inactive) | GI50 (XF498): 16.6 µM (inactive) | GI50 (DMS-273): 8.09 µM (inactive)

COC(=S)OC1CC(n2cnc3c(N)ncnc32)OC1CO[Si](C)(C)C(C)(C)C (stereo not drawn)
GI50 (PC-3): 12.1 µM (inactive) | GI50 (SR): 17.5 µM (inactive)

C=CCC(O[Si](C)(C)C(C)(C)C)c1cc(O[Si](C)(C)C(C)(C)C)ccc1OC (stereo not drawn)
GI50 (HOP-18): > 100 µM (inactive) | GI50 (DMS-114): > 59.7 µM (inactive) | GI50 (SNB-78): > 49.2 µM (inactive) | GI50 (XF498): > 58.5 µM (inactive) | GI50 (DMS-273): > 95.1 µM (inactive)

Oc1ccc(NCn2c(=S)sc3ccccc32)cc1
GI50 (PC-3): > 100 µM (inactive)

C=C1C(=O)O[C@H]2[C@H]1[C@@H](OC(=O)C=C(C)C)CC1=C[C@@H](C[C@@]3(C)O[C@@H]23)OC1=O
GI50 (HOP-18): 3.05 µM (inactive) | GI50 (XF498): 2.05 µM (inactive) | GI50 (DMS-273): 1.61 µM (inactive)

Cc1ccc2oc3c(ccc(=O)n3C)c(=O)c2c1
GI50 (PC-3): > 100 µM (inactive) | GI50 (SR): > 100 µM (inactive)

CC(C)(C)[Si](C)(C)OCC1OC(n2cnc3c(N)ncnc32)CC1OS(C)(=O)=O (stereo not drawn)
GI50 (PC-3): > 100 µM (inactive) | GI50 (SR): > 100 µM (inactive)

COC(=O)c1ccccc1/N=C(/NC1CCCCCC1)NS(=O)(=O)c1ccc(C)cc1
GI50 (PC-3): > 100 µM (inactive) | GI50 (SR): > 100 µM (inactive)

COc1cc(/C=C2\N=C(c3ccccc3)N(c3ccc(C(=O)c4ccccc4)cc3N3C(=O)/C(=C/c4cc(OC)c(OC)c(OC)c4)N=C3c3ccccc3)C2=O)cc(OC)c1OC
GI50 (PC-3): 12.6 µM (inactive)

Cc1ccc(S(=O)(=O)N(CC(=O)O)c2ccccc2)cc1
GI50 (LXFL 529): > 100 µM (inactive) | GI50 (HOP-18): > 100 µM (inactive) | GI50 (DMS-273): > 100 µM (inactive)

COc1cccc(C2C(C(=O)O)=C(CO)Oc3cc4c(cc32)OCO4)c1OC (stereo not drawn)
GI50 (LXFL 529): > 100 µM (inactive) | GI50 (HOP-18): > 100 µM (inactive) | GI50 (RXF 631): > 100 µM (inactive) | GI50 (SNB-78): > 100 µM (inactive) | GI50 (XF498): 9.25 µM (inactive)

COc1cccc2c1C(=O)c1c(O)c3c(c(O)c1C2=O)C[C@@](O)(C(=O)CO)C[C@@H]3OC1CC(N2CCOCC2)C(O)C(C)O1 (stereo partly drawn)
GI50 (PC-3): 0.033 µM (active) | GI50 (HOP-18): 0.0034 µM (active) | GI50 (DMS-114): 0.0025 µM (active) | GI50 (SR): 0.00466 µM (active) | GI50 (SNB-78): 0.0025 µM (active) | GI50 (XF498): 0.0025 µM (active) | GI50 (DMS-273): 0.00409 µM (active)

CC(C)NC(=O)CN1CCN(C2=C(Cl)C(=O)c3c(O)ccc(O)c3C2=O)CC1
GI50 (PC-3): 1.89 µM (inactive) | GI50 (SR): 0.148 µM (active)

CC(=O)OC1CC2(O)C(CCC3(C)C(c4ccc(=O)oc4)CCC32O)C2(C)C1=CC(O)C1OC12 (stereo not drawn)
GI50 (HOP-18): 0.048 µM (active) | GI50 (DMS-114): 0.025 µM (active) | GI50 (SNB-78): 0.0442 µM (active) | GI50 (XF498): 0.0693 µM (active) | GI50 (DMS-273): 0.04 µM (active)

Cc1ccc2cc3cccc(C(=O)NCCN(C)C)c3nc2c1
GI50 (HOP-18): 2.23 µM (inactive) | GI50 (DMS-114): 0.929 µM (active) | GI50 (SNB-78): 1.37 µM (inactive) | GI50 (XF498): 0.977 µM (active) | GI50 (DMS-273): 0.647 µM (active)

CC1=C(C)[C@@]2(C)O[C@@]2(C)O[C@@]2(C)O[C@@]12C
GI50 (PC-3): > 100 µM (inactive) | GI50 (SR): > 100 µM (inactive)

Oc1c(CNCCCN2CCCC2)cc(Cl)c2cccnc12
GI50 (HOP-18): 4.95 µM (inactive) | GI50 (DMS-114): 3.05 µM (inactive) | GI50 (SNB-78): 14.2 µM (inactive) | GI50 (XF498): 2.56 µM (inactive) | GI50 (DMS-273): 2.83 µM (inactive)

CN1c2ccccc2C(=O)NC12CCN(CCCC(=O)c1ccc(F)cc1)CC2
GI50 (PC-3): 78.2 µM (inactive) | GI50 (SR): 32.4 µM (inactive)

O=C1OC(c2ccccc2)=N/C1=C\c1ccc(Oc2ccc(Cl)c(Cl)c2)cc1
GI50 (LXFL 529): 25.6 µM (inactive) | GI50 (HOP-18): > 100 µM (inactive) | GI50 (DMS-114): 15.4 µM (inactive) | GI50 (SR): 21.7 µM (inactive) | GI50 (SNB-78): 25.9 µM (inactive)

Cc1cc(S(=O)(=O)Nc2nc(Nc3ccccc3)n[nH]2)c(SSc2cc(Cl)c(C)cc2S(=O)(=O)Nc2nc(Nc3ccccc3)n[nH]2)cc1Cl
GI50 (PC-3): > 100 µM (inactive) | GI50 (SR): 40.2 µM (inactive)
